Laboratory results: PubChem BioAssay AID1259407 (Chemical Carcinogenesis Research Information System (CCRIS), 2018)
Active and inactive are the calls of the source. The rule behind the calls is not given here.

System: CCRIS mutagenicity, Ames/micronucleus/aberration tests
Assay: CCRIS mutagenicity studies
[1] = Test System: AMES SALMONELLA TYPHIMURIUM, Strain/Indicator: TA98, Metabolic Activation: NONE, Method: PREINCUBATION
[2] = Test System: AMES SALMONELLA TYPHIMURIUM, Strain/Indicator: TA100, Metabolic Activation: NONE, Method: PREINCUBATION

`NCCN1CCNCC1` was tested, and the mutagenic call [1] was “inactive; negative”, the mutagenic call (Test System: AMES SALMONELLA TYPHIMURIUM, Strain/Indicator: TA98, Metabolic Activation: NONE, Method: STANDARD PLATE) was “inactive; negative” and the mutagenic call (Test System: AMES SALMONELLA TYPHIMURIUM, Strain/Indicator: TA98, Metabolic Activation: RAT, LIVER, S-9, AROCLOR 1254, Method: STANDARD PLATE) was “inactive; negative”. For the same compound, the mutagenic call (Test System: AMES SALMONELLA TYPHIMURIUM, Strain/Indicator: TA98, Metabolic Activation: RAT, LIVER, S-9, PCB, Method: PREINCUBATION) was “inactive; negative”, the mutagenic call [2] was “inactive; negative” and the mutagenic call (Test System: AMES SALMONELLA TYPHIMURIUM, Strain/Indicator: TA100, Metabolic Activation: NONE, Method: STANDARD PLATE) was “inactive; negative”. For the same compound, the mutagenic call (Test System: AMES SALMONELLA TYPHIMURIUM, Strain/Indicator: TA100, Metabolic Activation: RAT, LIVER, S-9, AROCLOR 1254, Method: STANDARD PLATE) was “inactive; negative”, the mutagenic call (Test System: AMES SALMONELLA TYPHIMURIUM, Strain/Indicator: TA100, Metabolic Activation: RAT, LIVER, S-9, PCB, Method: PREINCUBATION) was “inactive; negative” and the mutagenic call (Test System: AMES SALMONELLA TYPHIMURIUM, Strain/Indicator: TA1535, Metabolic Activation: NONE, Method: STANDARD PLATE) was “inactive; negative”. For the same compound, the mutagenic call (Test System: AMES SALMONELLA TYPHIMURIUM, Strain/Indicator: TA1535, Metabolic Activation: RAT, LIVER, S-9, AROCLOR 1254, Method: STANDARD PLATE) was “inactive; negative”, the mutagenic call (Test System: AMES SALMONELLA TYPHIMURIUM, Strain/Indicator: TA1537, Metabolic Activation: NONE, Method: STANDARD PLATE) was “inactive; negative” and the mutagenic call (Test System: AMES SALMONELLA TYPHIMURIUM, Strain/Indicator: TA1537, Metabolic Activation: RAT, LIVER, S-9, AROCLOR 1254, Method: STANDARD PLATE) was “inactive; negative”. The mutagenic call (Test System: AMES SALMONELLA TYPHIMURIUM, Strain/Indicator: TA1538, Metabolic Activation: NONE, Method: STANDARD PLATE) was “inactive; negative”, the mutagenic call (Test System: AMES SALMONELLA TYPHIMURIUM, Strain/Indicator: TA1538, Metabolic Activation: RAT, LIVER, S-9, AROCLOR 1254, Method: STANDARD PLATE) was “inactive; negative” and the mutagenic call (Test System: UDS RAT HEPATOCYTES, Strain/Indicator: THY INCORP, Metabolic Activation: NONE, Method: SCINTILLATION SPECTROMETRY) was “inactive; negative”.
For `[Cl][Ti]([Cl])[Cl]`, the mutagenic call [1] was “inactive; negative”, the mutagenic call (Test System: AMES SALMONELLA TYPHIMURIUM, Strain/Indicator: TA98, Metabolic Activation: RAT LIVER S-9, PHENOBARBITAL AND BETA-NAPHTHOFLAVONE, Method: PREINCUBATION) was “inactive; negative” and the mutagenic call [2] was “inactive; negative”. The mutagenic call (Test System: AMES SALMONELLA TYPHIMURIUM, Strain/Indicator: TA100, Metabolic Activation: RAT LIVER S-9, PHENOBARBITAL AND BETA-NAPHTHOFLAVONE, Method: PREINCUBATION) was “active; positive”, the mutagenic call (Test System: AMES SALMONELLA TYPHIMURIUM, Strain/Indicator: TA1535, Metabolic Activation: NONE, Method: PREINCUBATION) was “inactive; negative” and the mutagenic call (Test System: AMES SALMONELLA TYPHIMURIUM, Strain/Indicator: TA1535, Metabolic Activation: RAT LIVER S-9, PHENOBARBITAL AND BETA-NAPHTHOFLAVONE, Method: PREINCUBATION) was “inactive; negative”. For the same compound, the mutagenic call (Test System: AMES SALMONELLA TYPHIMURIUM, Strain/Indicator: TA1537, Metabolic Activation: NONE, Method: PREINCUBATION) was “inactive; negative”, the mutagenic call (Test System: AMES SALMONELLA TYPHIMURIUM, Strain/Indicator: TA1537, Metabolic Activation: RAT LIVER S-9, PHENOBARBITAL AND BETA-NAPHTHOFLAVONE, Method: PREINCUBATION) was “inactive; negative” and the mutagenic call (Test System: AMES SALMONELLA TYPHIMURIUM, Strain/Indicator: TA1538, Metabolic Activation: NONE, Method: PREINCUBATION) was “inactive; negative”. For the same compound, the mutagenic call (Test System: AMES SALMONELLA TYPHIMURIUM, Strain/Indicator: TA1538, Metabolic Activation: RAT LIVER S-9, PHENOBARBITAL AND BETA-NAPHTHOFLAVONE, Method: PREINCUBATION) was “inactive; negative”, the mutagenic call (Test System: E.COLI, Strain/Indicator: WP2UVRA, Metabolic Activation: NONE, Method: PREINCUBATION) was “inactive; negative” and the mutagenic call (Test System: E.COLI, Strain/Indicator: WP2UVRA, Metabolic Activation: RAT LIVER S-9, PHENOBARBITAL AND BETA-NAPHTHOFLAVONE, Method: PREINCUBATION) was “inactive; negative”.
